Measurements from article PMC8845285, “Serotoninergic receptor ligands improve Tamoxifen effectiveness on breast cancer cells” (BMC Cancer, 2022).

Experiments:
MCF10A cells = assay: MCF10A non-cancer breast epithelial cell viability, sulforhodamine B assay; type: cell-based, human; conditions: 72 h
Procedure: MCF7 (ER^+, PR^+, HER2^−), SKBR3 (ER^−, PR^+, HER2^+) and MDA-MB231 (ER^−, PR^−, HER2^−) human BC cells and MCF10A non-cancer breast epithelial cells were available in our laboratory. MCF7, SKBR3 and MDA-MB231 cells were cultured in DMEM, supplemented with 10% FBS, 2 mM glutamine, 100 units/ml penicillin and 100 units/ml streptomycin. MCF10A cells were cultured in MEBM, supplemented with 0.4% BPE, 0.1% hEGF, 0.1%, Insulin, 0.1% Hydrocortisone and 0.1% GA-1000. Cultures were maintained in a humidified atmosphere of 95% air and 5% CO2 at 37 °C. Treatment with SER were carried out in culture conditions. […]
Cells were fixed with 50% trichloroacetic acid for at least 2 h at 4 °C, washed with distilled and de-ionized water, air-dryed and stained 30 min with 0.4% sulforhodamine B in 1% acetic acid. […] Cell survival was assessed by optical density determination at 510 nm using a microplate reader.
Fig. 7 Effect of low doses of SER79 and SER68 on MCF7 and MCF10A cells. a Estrogen-starved MCF7 cells (48 h) were treated with Tamoxifen (5 μM) in presence of E2 (100nM) and SER79 (5 μM) or SER68 (20 μM, 5 μM). […] After 72 h, cell viability was assessed by sulforhodamine B assay (see Methods). […] After 72 h, mRNA levels of CTGF were determined by qPCR (see Methods and Table 1). […] After 72 h, cell viability was assessed by sulforhodamine B assay (see Methods). […]

MCF7-R cells = assay: Tamoxifen-resistant MCF7-R cell viability, sulforhodamine B assay; type: cell-based, human; conditions: SER 20 μM; for effect on MCF7-R cells if used alone (viability): E2 100 nM, 72 h; for effect on viability of MCF7-R cells in co-treatment with Tamoxifen: Tamoxifen 5 μM, E2, 72 h
Procedure: Cells were fixed with 50% trichloroacetic acid for at least 2 h at 4 °C, washed with distilled and de-ionized water, air-dryed and stained 30 min with 0.4% sulforhodamine B in 1% acetic acid. Unbound dye was removed and 10 mM tris-HCl solution (pH 7.5) was added to dissolve the protein-bound dye. Cell survival was assessed by optical density determination at 510 nm using a microplate reader.
MCF7 cells were cultured for 4 months in phenol-red free medium supplemented with 10% (C/S) FBS and continuously exposed to Tamoxifen (1 μM). […] To further validate the degree of drug resistance, the expression levels of ABCC1, ABCG1 and ABCG2 – members of ABC transporter family known as involved in multi-drug resistance – were evaluated by Quantitative Real-Time PCR (qPCR; see below) upon cell treatment with 5 μM Tamoxifen for 72 h.
Fig. 9 Effect of SER79 and SER68 on Tamoxifen-resistant (MCF7-R) cells. a Estrogen starved MCF7-R were treated with SER79 (20 μM, 5 μM) or SER68 (20 μM) in presence of E2 (100 nM). b Estrogen-starved MCF7-R were treated with Tamoxifen (5 μM) in presence of E2 and SER79 (20 μM) or SER68 (20 μM). a,b As positive control, the cells were treated with E2 alone, in absence or in presence of SER (dotted line). After 72 h, cell viability was assessed by sulforhodamine B assay (see Methods). The results were reported as percentage of viable cells compared to positive control, considered as maximum viability (100%). c mRNA levels of CTGF were determined by qPCR (see Methods and Table 1) in MCF7-R cells upon treatment with SER68 (20 μM). Data were normalized on Ribosomal Protein S23 (Rps23) gene as internal standard and reported as CTGF mRNA levels in MCF7-R. a-c Graphs represent the mean ± SD of at least three independent triplicate experiments. * denotes statistically significant values compared with (b) positive control or (c) MCF7 cells (*adjp<0.05; **adjp<0.001). # denotes statistically significant values compared with untreated MCF7-R (#pval<0.05) […]
Figure S3. Establishment of MCF7 Tamoxifen re sista n t(M C F7-R) cells. MCF7 cells were cultured with Tamoxifen (1µM), in absence of E2, for 4 months (M C F7-R). (a-b) MCF7 and MCF7-R cells were treated with in c re a s in gconcentration of Tamoxifen […]
As positive control, cells were treated with E2 alone. Cell viability was measured by sulforhodamine B assay (se e Methods). The re su ltswere re p o rte das percentage of viable cells compared to untreated cells, considered as maximum viability (100%). […]
(a ) * denotes statistically significant values compared with untreated cells […]
(1 picture or pasted object on this page, not shown here)

O=C1C2C3C=CC(C3)C2C(=O)N1OCCN1CCN(c2ccc(Cl)c(Cl)c2)CC1 (stereo not drawn) [SER68]
effect on MCF10A cell viability (MCF10A cells; 20 μM): No effect was detected on cell viability
effect on MCF7-R cells if used alone (viability) (MCF7-R cells): neither
effect on viability of MCF7-R cells in co-treatment with Tamoxifen (MCF7-R cells): significantly reduced viability

N#CN=C(NCCCN1CCN(C(c2ccc(F)cc2)c2ccc(F)cc2)CC1)c1ccccn1 [SER79]
effect on MCF10A cell viability (MCF10A cells; 5 μM): No effect was detected on cell viability
effect on MCF7-R cells if used alone (viability) (MCF7-R cells): neither
effect on viability of MCF7-R cells in co-treatment with Tamoxifen (MCF7-R cells): No significant effect
